SMILES strings stand for the structures. Non-standard residues stand in square brackets, D forms with d. Residues, ends and D or L forms follow the SMILES beside them. *: point of attachment. X2 = O=C(O)CN1CCN(CC(=O)O)CCN(CC(=O)NCc2ccc(NC(=O)COCC(=O)*)cc2)CCN(CC(=O)O)CC1; NHCH(iBu)2 = CC(C)CC(CC(C)C)N*; hSer = N[C@@H](CCO)C(=O)O

The data set is described as follows: Metabolic stability in vitro in human serum (37 °C, 72 ± 2 h). Format: in vitro ADME. The following applies: ^177Lu-labeled NeoB and UL analogs, n = 3. Here is the method:
Metabolic stability in vitro was determined applying a procedure published by Linder et al. that was slightly modified. Immediately after labeling, human serum (200 µL) was added to the labeling solution (~ 30 µL) and the mixture was incubated at 37 °C for 72 ± 2 h. Proteins were precipitated by treatment with ice-cold ethanol (150 µL) and ice-cold acetonitrile (450 µL), followed by centrifugation at 13,000 rpm for 5 min. The supernatants were decanted and further analyzed using radio RP-HPLC.

For `CC(C)CC(CC(C)C)NC(=O)[C@H](Cc1c[nH]cn1)NC(=O)CNC(=O)[C@@H](NC(=O)[C@H](C)NC(=O)[C@H](Cc1c[nH]c2ccccc12)NC(=O)[C@H](CCO)NC(=O)[C@@H](Cc1ccccc1)NC(=O)COCC(=O)Nc1ccc(CNC(=O)CN2CCN(CC(=O)O)CCN(CC(=O)O)CCN(CC(=O)O)CC2)cc1)C(C)C` [[Hse^7]NeoB] (X2-[dF][hSer]WAVGH-{NHCH(iBu)2}; N-terminus and C-terminus assumed), the “Percentage of intact compound in human serum” value stood at 57.4 ± 2.1%.
In the case of `CC(C)CC(CC(C)C)NC(=O)[C@H](Cc1c[nH]cn1)NC(=O)CNC(=O)[C@@H](NC(=O)[C@H](C)NC(=O)[C@](C)(Cc1c[nH]c2ccccc12)NC(=O)[C@H](CCC(N)=O)NC(=O)[C@@H](Cc1ccccc1)NC(=O)COCC(=O)Nc1ccc(CNC(=O)CN2CCN(CC(=O)O)CCN(CC(=O)O)CCN(CC(=O)O)CC2)cc1)C(C)C` [[α-Me-Trp^8]NeoB] it was 70.7 ± 2.8%.

The values above are taken from paper PMC12401824, “Studies on the impact of modifications at the Gln-Trp site in RM2-based GRPR ligands” (EJNMMI Research, 2025).
